Experiment: Emission intensity of fluorophores exposed to different excitation wavelengths
Assay type: physicochemical
Conditions: shift in excitation wavelength
Text: FIGS. 10A and 10B present graphs of emission intensities for two separate fluorphores, mPlum and cy5, exposed to different excitation wavelengths. As shown in FIG. 10A the shift in excitation wavelength yielded a decrease in emission intensity of about 96% for fluorphore 1 which was mPlum.

increase in emission intensity	Compound	decrease in emission intensity (FIG. 10A)
about 156%	CCN1/C(=C/C=C/C=C/C2=[N+](CCCCCC(=O)O)c3ccc(S(=O)(=O)O)cc3C2(C)C)C(C)(C)c2cc(S(=O)(=O)[O-])ccc21 [cy5]	–
–	mPlum	about 96%
